For 12 compounds, Ki results are on record in ChEMBL document CHEMBL1143518, “Binding of isotryptamines and indenes at h5-HT6 serotonin receptors” (Bioorg Med Chem Lett, 2005).

Usually Ki stands for a dissociation constant, usually derived from enzyme kinetics or from competition with a known ligand. A high value points to a looser hold on the target.

Each structure is given as a SMILES string.

5-hydroxytryptamine receptor 6, sequence (P50406 whole entry): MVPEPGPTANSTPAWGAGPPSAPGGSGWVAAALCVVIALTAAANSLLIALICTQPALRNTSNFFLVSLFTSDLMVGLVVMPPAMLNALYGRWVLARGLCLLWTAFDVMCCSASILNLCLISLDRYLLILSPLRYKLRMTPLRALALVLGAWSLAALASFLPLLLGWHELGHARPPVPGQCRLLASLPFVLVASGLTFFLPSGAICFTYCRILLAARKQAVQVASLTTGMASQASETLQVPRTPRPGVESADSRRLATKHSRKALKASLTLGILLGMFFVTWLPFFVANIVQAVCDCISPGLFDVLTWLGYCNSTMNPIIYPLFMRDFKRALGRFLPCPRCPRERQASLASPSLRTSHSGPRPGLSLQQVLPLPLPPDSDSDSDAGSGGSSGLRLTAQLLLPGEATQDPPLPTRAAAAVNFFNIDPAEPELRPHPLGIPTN

This test has as its target 5-hydroxytryptamine receptor 6 (Homo sapiens, UniProt P50406). Put plainly: Binding affinity against human 5-Hydroxytryptamine 6 receptor expressed in HEK293 cells using [3H]LSD done for 90 minutes at pH 7.4 at room temperature. Type of test: cell-based.
On to `Nc1ccc(SC2CCc3ccccc32)cc1` (configuration not stated), for which the Ki worked out at 4200 nM.
In the case of `Nc1ccc(S(=O)(=O)C2CCc3ccccc32)cc1` (configuration not stated) it was 740 nM.
`Nc1ccc(/C=C2\C=Cc3ccccc32)cc1` returned a Ki of 640 nM.
Next, `Nc1ccc(CC2C=Cc3ccccc32)cc1` (configuration not stated): 4470 nM.
Next, `CN(C)CCn1cc(Cc2ccc(N)cc2)c2ccccc21`: 50 nM; `CNCCC1=CC(Cc2ccccc2)c2ccccc21` (configuration not stated): 3 nM; `CNCCC1=CC(CCc2ccccc2)c2ccccc21` (configuration not stated): 100 nM.
As for `Nc1ccc(CC2CCc3ccccc32)cc1` (configuration not stated), the Ki worked out at 6100 nM.
Turning to `Nc1ccc(Cc2c[nH]c3ccccc23)cc1`, the Ki was 2530 nM.
`Nc1ccc(CC2=CCc3ccccc32)cc1` yielded a Ki of 11800 nM.
As to `CN(C)CCc1cn(CCc2ccccc2)c2ccccc12`, the Ki stood at 12 nM.
As for `CN(C)CCC1=C/C(=C\c2ccccc2)c2ccccc21`, the inhibition constant (Ki) turned out to be 57 nM.
